Measured values from article PMC10432207 (Heliyon, 2023).
Values after ≈ are worked out from the molar mass of the structure shown.

Biological target: Hyalomma scupense acetylcholinesterase (AChE)
Experiment: Ellman assay, absorbance at […] nm
Type: biochemical
Conditions: acetylthiocholine iodide, DTNB, 10 min, 37 °C

Compound | IC50 | IC50 (positive control)
C=CCc1ccc(O)c(OC)c1 [eugenol] | 178 µg/mL (≈ 1080 µM) | –
COc1ccc2c3c1O[C@H]1C[C@@H](O)C=C[C@@]31CCN(C)C2 [galantamine] | – | 97 µg/mL (≈ 338 µM)
